Laboratory results reported in ChEMBL document CHEMBL6182933, “Design and Synthesis of PARP/CDK6 Dual-Target Inhibitors Modulating of Wnt/β-Catenin Signaling Pathway for the Treatment of BRCA Wild-Type TNBC” (J Med Chem, 2025).
pIC50: −log10 of the molar value.

How the values were obtained:
MDA-MB-468 = assay: Antiproliferative activity against human MDA-MB-468 cells assessed as cell viability incubated for 48 hrs by MTT assay; assay type: functional, cell-based; settings: MDA-MB-468, 48 h
HCC1937 = assay: Antiproliferative activity against human HCC1937 cells harboring BRCA1 mutant assessed as cell viability incubated for 48 hrs by MTT assay; assay type: functional, cell-based; settings: HCC1937, 48 h
[1] = Selectivity index, ratio of IC50 for antiproliferative activity against human HCC1937 cells harboring BRCA1 mutant assessed as cell viability to IC50 for antiproliferative activity against human MDA-MB-231 cells assessed as cell viability; assay type: functional
[2] = Cytotoxicity against human MCF-10A cells assessed as cell viability incubated for 48 hrs by MTT assay; assay type: toxicity, cell-based
HCT-116 = assay: Antiproliferative activity against human HCT-116 cells harboring BRCA2 mutant assessed as cell viability incubated for 48 hrs by MTT assay; assay type: functional, cell-based; settings: HCT-116, 48 h
[3] = target: Poly [ADP-ribose] polymerase 1 (Homo sapiens, UniProt P09874); assay: Inhibition of GST-tagged PARP1(unknown origin) in presence of activated DNA incubated for 60 mins by microplate reader analysis
MDA-MB-231 = assay: Antiproliferative activity against human MDA-MB-231 cells assessed as cell viability incubated for 48 hrs by MTT assay; assay type: functional, cell-based; settings: MDA-MB-231, 48 h
[4] = target: Cyclin-dependent kinase 6 (Homo sapiens, UniProt Q00534); assay: Inhibition of full length N-terminal human recombinant CDK6 expressed in baculovirus sf9 cells in presence of ATP by ADP-glo kinase assay
Chain of Cyclin-dependent kinase 6 (Q00534 whole entry): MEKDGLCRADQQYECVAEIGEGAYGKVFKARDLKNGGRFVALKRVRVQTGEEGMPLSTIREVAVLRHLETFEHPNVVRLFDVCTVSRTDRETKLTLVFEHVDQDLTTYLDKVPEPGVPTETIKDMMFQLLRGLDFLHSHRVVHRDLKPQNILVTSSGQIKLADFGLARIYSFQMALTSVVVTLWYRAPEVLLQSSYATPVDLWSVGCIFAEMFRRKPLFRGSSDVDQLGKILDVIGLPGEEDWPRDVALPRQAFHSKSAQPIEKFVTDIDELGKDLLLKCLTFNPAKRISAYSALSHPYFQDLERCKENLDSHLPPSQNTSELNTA

Chain of Poly [ADP-ribose] polymerase 1 (P09874 whole entry): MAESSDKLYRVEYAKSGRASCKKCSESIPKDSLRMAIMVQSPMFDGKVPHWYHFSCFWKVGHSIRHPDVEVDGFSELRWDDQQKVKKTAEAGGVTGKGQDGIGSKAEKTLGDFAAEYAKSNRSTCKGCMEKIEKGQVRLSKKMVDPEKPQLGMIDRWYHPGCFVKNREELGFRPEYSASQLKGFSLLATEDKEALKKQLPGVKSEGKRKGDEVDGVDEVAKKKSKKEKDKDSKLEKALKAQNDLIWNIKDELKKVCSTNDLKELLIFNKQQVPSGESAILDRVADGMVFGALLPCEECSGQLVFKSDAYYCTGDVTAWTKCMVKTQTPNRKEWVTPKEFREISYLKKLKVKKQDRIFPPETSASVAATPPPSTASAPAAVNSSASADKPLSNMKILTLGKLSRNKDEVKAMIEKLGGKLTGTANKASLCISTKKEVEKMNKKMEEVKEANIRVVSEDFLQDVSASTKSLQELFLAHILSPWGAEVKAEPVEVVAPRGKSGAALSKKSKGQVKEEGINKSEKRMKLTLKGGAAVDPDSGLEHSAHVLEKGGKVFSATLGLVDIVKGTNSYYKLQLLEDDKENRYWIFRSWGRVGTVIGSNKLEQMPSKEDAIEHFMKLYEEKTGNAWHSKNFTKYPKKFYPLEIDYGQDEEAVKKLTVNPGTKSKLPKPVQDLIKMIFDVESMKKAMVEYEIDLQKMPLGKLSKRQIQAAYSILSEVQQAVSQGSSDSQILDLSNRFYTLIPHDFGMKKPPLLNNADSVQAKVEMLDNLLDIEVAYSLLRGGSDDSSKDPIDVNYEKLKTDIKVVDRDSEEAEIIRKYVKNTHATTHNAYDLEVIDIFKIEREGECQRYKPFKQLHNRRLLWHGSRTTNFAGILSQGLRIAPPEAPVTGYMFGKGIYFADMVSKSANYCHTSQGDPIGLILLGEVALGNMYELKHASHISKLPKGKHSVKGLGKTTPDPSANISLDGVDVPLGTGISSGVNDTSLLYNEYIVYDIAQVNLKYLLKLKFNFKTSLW

pIC50 (MDA-MB-468): 5.36
pIC50 (HCC1937): 5.06
pIC50 (HCT-116): 5.69
pIC50 [3]: 6.95
pIC50 (MDA-MB-231): 5.80
pIC50 [4]: 7.34
SMILES: CN(C)C(=O)c1cc2cnc(Nc3ccc(C(=O)N4CCC(c5nc6c(C(N)=O)cccc6[nH]5)C4)cc3Cl)nc2n1C1CCCC1 (stereo not drawn)
Ratio IC50 [1]: 5.48
IC50 at 48 h [2]: 0.93 µM
